Measured values published in patent US20120101076A1, “CARBONATE DERIVATIVES FOR THE TREATMENT OF COUGH” (priority 2010, published 2012).

Experiments:
[1] = system: guinea pigs (citric acid-induced cough); assay: citric acid cough challenge in guinea pigs; type: in vivo, guinea pig; details: for percentage (%) reduction of number of coughs / percentage (%) of reduction of number of cough efforts: mean±SEM
Procedure: Evaluation of the activities of Compound Ia and tiotropium bromide in an animal cough challenge model.
Male Dunkin-Hartley guinea pigs (250-350 g, Charles-River, Italy) were acclimatized in cages, (24±0.5° C.) for 1 week after delivery, with free access to water and standard rodent diet. One group of guinea pigs was actively sensitized by an intra-peritoneal injection of ovalbumin (100 mg/kg) followed by a subcutaneous injection of ovalbumin (100 mg/kg). Controls received the vehicle alone (0.9% NaCl).
After the period of acclimatization to laboratory conditions, animals were individually placed in a transparent perspex box (20×10×10 cm, Vetrotecnica, Italy) ventilated with a constant airflow of 400 ml/minute. A tussive agent (citric acid, 0.25 M) was nebulized via a mini-ultrasonic nebulizer (Ugo Basile, Italy). […] The numbers of elicited cough efforts were counted by a blind observer.
All experiments were carried out at the same time of day, starting at 9.00 a.m. Guinea-pigs received Compound Ia (1 mM) or tiotropium bromide (0.3 mM) or their vehicle (distilled water) for 10 minutes by aerosol at least 3 hour before the citric acid challenge (0.25 M; for 10 minute; by aerosol), in order to elicit cough.
Values are presented as mean±SEM. Comparisons among groups were made by one way analysis of variance (ANOVA) and the Student's t-test or the Bonferroni's test when appropriate. A p value of <0.05 was considered significant.

postviral coughing = details: inhaled, relative to placebo; cited from earlier work
[2] = system: adult nonsmokers with acute viral upper respiratory tract infection; details: once daily 18 μg by inhalation for 7 days; cited from earlier work
[3] = system: ovalbumin-sensitized guinea-pigs; details: administered intratracheally; cited from earlier work

## O=C(OC(c1cccc(F)c1)c1cccc(F)c1)O[C@H]1C[N+]2(CC(=O)c3cccs3)CCC1CC2.[Cl-] [Compound Ia]
[1]; 1 mM by aerosol, 3 hours before citric acid 0.25 M
  number of cough efforts induced by citric acid (statistical significance): significantly reduced
[1]; control, non-sensitized animals, 1 mM by aerosol, 3 hours before citric acid 0.25 M
  percentage (%) reduction of number of coughs: 17.4±6.4%
[1]; ovalbumin-sensitized animals, 1 mM by aerosol, 3 hours before citric acid 0.25 M
  percentage (%) reduction of number of coughs: 37.2±5.9%

## CC(C)[N+]1(C)[C@@H]2CC[C@H]1C[C@@H](OC(=O)C(CO)c1ccccc1)C2 (stereo partly drawn) [ipratropium bromide]
Postviral coughing
  suppression of subjectively described postviral coughing: effective

## C[N+]1(C)[C@@H]2C[C@@H](OC(=O)C(O)(c3cccs3)c3cccs3)C[C@H]1[C@@H]1O[C@@H]12 [tiotropium bromide]
[1]; 0.3 mM by aerosol, 3 hours before, both animal groups
  number of cough efforts induced by citric acid (statistical significance): did not reach a statistical significance
[1]; control animals, 0.3 mM by aerosol, 3 hours before citric acid 0.25 M
  percentage (%) of reduction of number of cough efforts: 20.2±9.9%
[1]; ovalbumin-sensitized animals, 0.3 mM by aerosol, 3 hours before citric acid 0.25 M
  percentage (%) of reduction of number of cough efforts: 28.1±11%
[2]
  cough reflex sensitivity to inhaled capsaicin: capable of inhibiting cough reflex sensitivity
[3]
  cough elicited by inhalation of citric acid: able to reduce cough
